Molecular target: T1, human TRH-DE (Homo sapiens, UniProt Q9UKU6)
T1 construct: expressed in transfected cells; host or cells: Expi 293 cells (transient expression), membrane fraction
T1 sequence (Q9UKU6 1-1069): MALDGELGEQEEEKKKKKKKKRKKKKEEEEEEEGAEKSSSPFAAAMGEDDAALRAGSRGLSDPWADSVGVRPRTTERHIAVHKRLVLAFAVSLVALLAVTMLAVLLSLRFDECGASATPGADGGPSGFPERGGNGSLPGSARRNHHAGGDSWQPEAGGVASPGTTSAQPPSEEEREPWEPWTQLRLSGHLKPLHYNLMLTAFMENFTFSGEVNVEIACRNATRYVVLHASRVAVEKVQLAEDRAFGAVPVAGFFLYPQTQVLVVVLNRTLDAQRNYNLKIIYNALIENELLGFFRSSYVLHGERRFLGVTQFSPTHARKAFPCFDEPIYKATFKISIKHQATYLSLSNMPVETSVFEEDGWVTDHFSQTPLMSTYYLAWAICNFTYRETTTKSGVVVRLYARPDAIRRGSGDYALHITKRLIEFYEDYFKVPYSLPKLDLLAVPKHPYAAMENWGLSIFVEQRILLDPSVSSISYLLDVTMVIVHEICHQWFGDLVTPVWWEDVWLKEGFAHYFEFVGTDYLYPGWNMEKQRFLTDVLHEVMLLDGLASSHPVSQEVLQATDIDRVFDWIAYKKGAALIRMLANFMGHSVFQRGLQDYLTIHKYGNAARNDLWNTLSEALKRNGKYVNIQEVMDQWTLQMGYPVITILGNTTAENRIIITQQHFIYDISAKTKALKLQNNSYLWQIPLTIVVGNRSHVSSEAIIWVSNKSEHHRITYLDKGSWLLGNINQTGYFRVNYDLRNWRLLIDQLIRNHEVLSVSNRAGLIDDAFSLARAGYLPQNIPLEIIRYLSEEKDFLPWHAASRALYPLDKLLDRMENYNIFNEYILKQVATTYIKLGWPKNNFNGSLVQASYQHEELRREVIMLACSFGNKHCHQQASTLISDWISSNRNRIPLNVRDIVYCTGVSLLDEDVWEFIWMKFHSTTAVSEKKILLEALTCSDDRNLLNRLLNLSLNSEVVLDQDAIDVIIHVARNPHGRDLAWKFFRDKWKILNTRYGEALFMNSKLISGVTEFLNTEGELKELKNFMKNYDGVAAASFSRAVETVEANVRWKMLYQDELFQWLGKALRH
Experiment: TRH-DE inhibition test (RapidFire MS measurement of product Cyclo (His-Pro))
Type: biochemical
Conditions: membrane fraction of Expi 293 cells expressing human TRH-DE; 10 μM TRH substrate; room temperature, 2 hours; 16-point concentration test
Procedure, shortened: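 Membrane fraction from Expi 293 cells transiently expressing human TRH-DE, at 4 μg/ml in phosphate buffer pH 7.4 with 200 μM bacitracin, reacted with compound and 10 μM substrate for 2 h at room temperature. Cyclo(His-Pro) measured by RapidFire MS against an isotope internal standard. IC50 from 16-point curves.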

With `C[C@@H]1CCn2cncc2C(=O)N1C1CC2(C1)CN(S(=O)(=O)c1ccccc1F)C2` [Example 309, (7R)-8-[2-(2-fluorophenyl)sulfonyl-2-azaspiro[3.3]heptan-6-yl]-7-methyl-6,7-dihydro-5H-imidazo[1,5-a][1,4]diazepin-9-one] the IC50 was 32 nM.
With `C[C@@H]1CCn2cnc(C3CC3)c2C(=O)N1C1CC2(C1)CN(S(=O)(=O)c1ccccc1F)C2` [Example 310] the IC50 was 41 nM.
`C[C@@H]1COc2cc(C3CC3)cnc2C(=O)N1C1CC2(C1)CN(S(=O)(=O)c1ccccc1F)C2` [Example 311] showed an IC50 of 1 nM.
`Cc1cc2c(cn1)C(=O)N(C1CC3(C1)CN(S(=O)(=O)c1ccccc1F)C3)[C@H](C)CO2` [Example 312] showed an IC50 of 2 nM.
In the case of `C[C@@H]1COc2cc(C3CC3)ncc2C(=O)N1C1CC2(C1)CN(S(=O)(=O)c1ccccc1F)C2` [Example 313], the IC50 is reported as 1 nM.
`Cc1ccc2c(n1)OC[C@@H](C)N(C1CC3(C1)CN(S(=O)(=O)c1ccccc1F)C3)C2=O` [Example 314] showed an IC50 of 9 nM.
In the case of `C[C@@H]1COc2ncc(C3CC3)cc2C(=O)N1C1CC2(C1)CN(S(=O)(=O)c1ccccc1F)C2` [Example 315], the IC50 is reported as 3 nM.
`C[C@@H]1COc2nc(C3CC3)ccc2C(=O)N1C1CC2(C1)CN(S(=O)(=O)c1ccccc1F)C2` [Example 316] was tested, and the IC50 was 2 nM.
For `Cc1nc2c(cc1F)C(=O)N(C1CC3(C1)CN(S(=O)(=O)c1ccccc1F)C3)[C@H](C)CO2` [Example 317], the IC50 was 3 nM.
`Cc1ncc2c(n1)OC[C@@H](C)N(C1CC3(C1)CN(S(=O)(=O)c1ccccc1F)C3)C2=O` [Example 318] showed an IC50 of 9 nM.
`C[C@@H]1CCn2ncc(C3CC3)c2C(=O)N1C1CC2(C1)CN(S(=O)(=O)c1ccccc1F)C2` [Example 319] showed an IC50 of 22 nM.
`C[C@@H]1CCn2nc(F)c(C3CC3)c2C(=O)N1C1CC2(C1)CN(S(=O)(=O)c1ccccc1F)C2` [Example 320] gave an IC50 of 72 nM.
For `C[C@@H]1COc2nn(C)c(C3CC3)c2C(=O)N1C1CC2(C1)CN(S(=O)(=O)c1ccccc1F)C2` [Example 321], the IC50 was 74 nM.
Work on `C[C@@H]1CCn2c(cnc2C2CC2)C(=O)N1C1CC2(C1)CN(S(=O)(=O)c1ccccc1F)C2` [Example 322] yielded an IC50 of 7 nM.
`Cc1nc(C2CC2)n2c1C(=O)N(C1CC3(C1)CN(S(=O)(=O)c1ccccc1F)C3)[C@H](C)CC2` [Example 323] was tested, and the IC50 was 103 nM.
In the case of `Cc1onc2c1OC[C@@H](C)N(C1CC3(C1)CN(S(=O)(=O)c1ccccc1F)C3)C2=O` [Example 324], the IC50 is reported as 37 nM.
For `C[C@@H]1COc2c(noc2C2CC2)C(=O)N1C1CC2(C1)CN(S(=O)(=O)c1ccccc1F)C2` [Example 325], the IC50 was 17 nM.
`C[C@@H]1Cn2ncc(C3CC3)c2C(=O)N1C1CC2(C1)CN(S(=O)(=O)c1ccccc1F)C2` [Example 326] showed an IC50 of 4 nM.
`C[C@@H]1Cn2nc(F)c(C3CC3)c2C(=O)N1C1CC2(C1)CN(S(=O)(=O)c1ccccc1F)C2` [Example 327] showed an IC50 of 6 nM.
`C[C@@H]1Cn2cnc(C3CC3)c2C(=O)N1C1CC2(C1)CN(S(=O)(=O)c1ccccc1F)C2` [Example 328] gave an IC50 of 14 nM.
In the case of `Cc1nc(C2CC2)c2n1C[C@@H](C)N(C1CC3(C1)CN(S(=O)(=O)c1ccccc1F)C3)C2=O` [Example 329], the IC50 is reported as 67 nM.
With `C[C@@H]1Cn2cc(C3CC3)nc2C(=O)N1C1CC2(C1)CN(S(=O)(=O)c1ccccc1F)C2` [Example 330] the IC50 was 19 nM.
`C[C@@H]1COc2nc(C3CC3)ncc2C(=O)N1C1CC2(C1)CN(S(=O)(=O)c1ccccc1F)C2` [Example 331, (7R)-2-cyclopropyl-6-[2-(2-fluorophenyl)sulfonyl-2-azaspiro[3.3]heptan-6-yl]-7-methyl-7,8-dihydropyrimido[5,4-f][1,4]oxazepin-5-one] gave an IC50 of 3 nM.
In the case of `C[C@@H]1COc2cc(C#N)cnc2C(=O)N1C1CC2(C1)CN(S(=O)(=O)c1ccccc1F)C2` [Example 332, (3R)-4-[2-(2-fluorophenyl)sulfonyl-2-azaspiro[3.3]heptan-6-yl]-3-methyl-5-oxo-2,3-dihydropyrido[2,3-f][1,4]oxazepin-8-carbonitrile], the IC50 is reported as 4 nM.
Compound `C[C@@H]1COc2ncc(C#N)cc2C(=O)N1C1CC2(C1)CN(S(=O)(=O)c1ccccc1F)C2` [Example 333, (3R)-4-[2-(2-fluorophenyl)sulfonyl-2-azaspiro[3.3]heptan-6-yl]-3-methyl-5-oxo-2,3-dihydropyrido[3,2-f][1,4]oxazepin-7-carbonitrile] has an IC50 of 18 nM.
Compound `Cc1nc2c(cc1C#N)C(=O)N(C1CC3(C1)CN(S(=O)(=O)c1ccccc1F)C3)[C@H](C)CO2` [Example 334] has an IC50 of 18 nM.
Compound `CC(=O)c1cnc2c(c1)OC[C@@H](C)N(C1CC3(C1)CN(S(=O)(=O)c1ccccc1F)C3)C2=O` [Example 336] has an IC50 of 2 nM.
`C[C@@H]1COc2cc(C(F)(F)F)cnc2C(=O)N1C1CC2(C1)CN(S(=O)(=O)c1ccccc1F)C2` [Example 337] was tested, and the IC50 was 2 nM.
With `C[C@@H]1CNc2cccnc2C(=O)N1C1CC2(C1)CN(S(=O)(=O)c1ccccc1F)C2` [Example 338, (3R)-4-[2-(2-fluorophenyl)sulfonyl-2-azaspiro[3.3]heptan-6-yl]-3-methyl-2,3-dihydro-1H-pyrido[3,2-e][1,4]diazepin-5-one] the IC50 was 4 nM.
`CC1CCc2[nH]c(=O)ccc2C(=O)N1C1CC2(C1)CN(S(=O)(=O)c1ccccc1F)C2` (stereo not shown) [Example 339, 6-[2-(2-fluorophenyl)sulfonyl-2-azaspiro[3.3]heptan-6-yl]-7-methyl-1,7,8,9-tetrahydropyrido[3,2-c]azepin-2,5-dione] was tested, and the IC50 was 78 nM.
Compound `C[C@@H]1COc2nc(C(F)F)cnc2C(=O)N1C1CC2(C1)CN(S(=O)(=O)c1ccccc1F)C2` [Example 341, (7R)-3-(difluoromethyl)-8-[2-(2-fluorophenyl)sulfonyl-2-azaspiro[3.3]heptan-6-yl]-7-methyl-6,7-dihydropyrazino[2,3-f][1,4]oxazepin-9-one] has an IC50 of 5 nM.
For `C[C@@H]1CCn2c(C3CC3)nc(C(F)F)c2C(=O)N1C1CC2(C1)CN(S(=O)(=O)c1ccccc1F)C2` [Example 342, (7R)-3-cyclopropyl-1-(difluoromethyl)-8-[2-(2-fluorophenyl)sulfonyl-2-azaspiro[3.3]heptan-6-yl]-7-methyl-6,7-dihydro-5H-imidazo[1,5-a][1,4]diazepin-9-one], the IC50 was 50 nM.
With `CC1Cc2cc(C(F)(F)F)ncc2C(=O)N1C1CC2(C1)CN(S(=O)(=O)c1ccccc1F)C2` (stereo not shown) [Example 343, 2-[2-(2-fluorophenyl)sulfonyl-2-azaspiro[3.3]heptan-6-yl]-3-methyl-6-(trifluoromethyl)-3,4-dihydro-2,7-naphthyridin-1-one] the IC50 was 18 nM.
For `CC1(C)Oc2cc(Cl)ncc2C(=O)N1C1CC2(C1)CN(S(=O)(=O)c1ccccc1F)C2` [Example 344, 7-chloro-3-[2-(2-fluorophenyl)sulfonyl-2-azaspiro[3.3]heptan-6-yl]-2,2-dimethyl-pyrido[3,4-e][1,3]oxazin-4-one], the IC50 was 75 nM.
`C[C@@H]1Cn2c(ccc2C(F)(F)F)C(=O)N1C1CC2(C1)CN(S(=O)(=O)c1ccccc1F)C2` [Example 345, (3R)-2-[2-(2-fluorophenyl)sulfonyl-2-azaspiro[3.3]heptan-6-yl]-3-methyl-6-(trifluoromethyl)-3,4-dihydropyrrolo[1,2-a]pyrazin-1-one] was tested, and the IC50 was 167 nM.
In the case of `C[C@@H]1CNc2nc(C(F)(F)F)ccc2C(=O)N1C1CC2(C1)CN(S(=O)(=O)c1ccccc1F)C2` [Example 346, (3R)-4-[2-(2-fluorophenyl)sulfonyl-2-azaspiro[3.3]heptan-6-yl]-3-methyl-8-(trifluoromethyl)-2,3-dihydro-1H-pyrido[2,3-e][1,4]diazepin-5-one], the IC50 is reported as 2 nM.
`Cc1nc2c(s1)C(C)N(C1CC3(C1)CN(S(=O)(=O)c1ccccc1F)C3)C2=O` (stereo not shown) [Example 347] showed an IC50 of 185 nM.
Compound `C[C@@H]1COc2nc(C3CCC3)ncc2C(=O)N1C1CC2(C1)CN(S(=O)(=O)c1ccccc1F)C2` [Example 367] has an IC50 of 8 nM.
Work on `CCc1ncc2c(n1)OC[C@@H](C)N(C1CC3(C1)CN(S(=O)(=O)c1ccccc1F)C3)C2=O` [Example 368] yielded an IC50 of 13 nM.
For `CC(C)Oc1ncc2c(n1)OC[C@@H](C)N(C1CC3(C1)CN(S(=O)(=O)c1ccccc1F)C3)C2=O` [Example 369, (7R)-6-[2-(2-fluorophenyl)sulfonyl-2-azaspiro[3.3]heptan-6-yl]-7-methyl-2-propan-2-yloxy-7,8-dihydropyrimid[5,4-f][1,4]oxazepin-5-one], the IC50 was 8 nM.

Reference: patent US20260132127A1, “NOVEL SPIRO COMPOUND” (MITSUBISHI TANABE PHARMA CORPORATION, priority 2021, published 2026)
